# Assay results as given in PubChem BioAssay AID2305 (GlaxoSmithKline (GSK), 2010).
# Test system: P. falciparum 3D7 growth, pLDH absorbance
# Assay: P. falciparum 3D7 growth inhibition, dose response, strain 3D7 (AID 2305)
row,SMILES,IC50 [nM]
1,CCNc1cc(C(=O)N[C@@H](Cc2ccccc2)[C@H](O)CNC(C)(C)c2cccc(OC)c2)cc(N2CCCC2=O)c1,140
2,O=C(NCCC1CCN(CCc2c[nH]c3ccccc23)CC1)Nc1ccc(Cl)c(Cl)c1,830
3,O=c1c2ccccc2[nH]c2nc3ccccc3c(Nc3ccccc3)c12,140
4,N#Cc1ccc(CN2CCC(Oc3ccc(NC(=O)c4cccs4)cc3)C2)cc1 (centres undefined),950
5,CCN(CC)CCN(CCN(CC)CC)c1ccc2c(c1)Sc1c(Cl)ccc(Cl)c1S2,880
6,COc1ccc(Nc2nccc(N3CCC(NC(=O)c4cc5ccccc5s4)C3)n2)cc1 (centres undefined),760
7,COc1ccc2nccc([C@@H](O)CN3CCC(NCc4cc5oc(=O)n(C)c5cc4F)CC3)c2c1,660
8,Cc1cc(N(C)C)nc(Nc2ccc(NC(=O)c3ccccc3Cl)cc2)n1,1020
9,CC(=O)Nc1cccc(C(=O)Nc2ccc(-c3cccc(-c4nc5c(C)cccc5[nH]4)c3)cc2)c1,790
10,Cn1cc(C2CCN(CCCCNC(=O)c3ccc(C(=O)Nc4ccc(C#N)cc4)cc3)CC2)c2ccccc21,720
11,Cc1cc(N2CCCCC2)nc2ccc(NC(=O)c3cc(=O)c4ccccc4o3)cc12,720
12,COc1ccc2nccc(N3CCC(CCNCc4ccc5c(n4)NC(=O)CO5)CC3)c2c1,700
13,O=C(CCc1cccnc1)Nc1cccc(-c2ccc(-c3nc4ccc(C(F)(F)F)cc4[nH]3)s2)c1,950
14,O=C(Nc1cccc(-c2nn3ccccc3c2-c2ccnc(Nc3ccc(NCCCN4CCOCC4)c(F)c3)n2)c1)c1c(F)cccc1F,260
15,CCOC(C(=O)OCC1CCCN1C)(c1ccccc1)c1ccccc1 (centres undefined),860
16,CCC[C@@H](C(=O)NCCc1cccc(OC)c1)N1C(=O)c2c(ccc(OC)c2OC)C1C(=O)Nc1c(C)cccc1C (some centres undefined),810
17,CC(=NNC(=S)NC(c1ccccc1)c1ccccc1)c1ccccn1,900
18,Cc1cccc2[nH]c(-c3ccc(-c4cccc(NC(=O)NCc5ccccc5)c4)cc3)nc12,780
19,NCc1ccc(CNCc2cccc(-c3ccc(-c4nc5ccc(C(F)(F)F)cc5[nH]4)cc3)c2)cc1,260
20,CCCCCOc1ccc(NC2=CC(=O)C(=O)c3ccccc32)cc1,240
21,Cc1cc(N[C@@H](Cc2ccccc2)C(=O)NC2CCCC2)nc(NCCCOC(C)C)n1,1480
22,O=C(Nc1ccc2nc(-c3ccccc3)[nH]c2c1)c1cc(-c2ccc3c(c2)OCCO3)n[nH]1,770
23,COc1cc2c(cc1S(=O)(=O)c1ccc(COc3ccc(C(F)(F)F)cc3)cc1)CNCC2,750
24,COCCNCc1cccc(-c2ccc3nccc(Nc4cc(O)ccc4C)c3c2)c1,750
25,Cc1ccc(NC(=O)c2cc([N+](=O)[O-])ccc2NCc2cccnc2)cc1Cl,1120

row,SMILES,IC50 [nM]
1,COc1ccccc1CNC(=O)c1cc(Br)cc(N2CCN(c3ccncc3)CC2)c1,950
2,NC(=O)c1ccc(C(=O)Nc2cccc(-c3cccc(-c4nc5ccc(C(F)(F)F)cc5[nH]4)c3)c2)cc1,230
3,CC(C)NCc1cccc(-c2ccc(-c3nc4ccccc4[nH]3)cc2)c1,760
4,COc1ccc2nccc([C@@H](O)CN3CCC(NCc4cc5c(Cl)cc(Cl)cc5[nH]4)CC3)c2c1,60
5,OC(CNCc1cccc(Oc2ccc(Cl)cc2)c1)c1cc(C(F)(F)F)cc(C(F)(F)F)c1 (centres undefined),260
6,O=C(/C=C/c1ccc(Cl)c(Cl)c1)NCCCCCN1CC[C@H](NC(=O)Nc2ccc(Oc3ccccc3)cc2)C1,700
7,Cc1[nH]c2ccccc2c1C1=CCN(C[C@H]2C[C@@H]2C(=O)c2ccccc2)CC1,350
8,Fc1ccccc1COc1ccc(Nc2ncnc3ccc(I)cc23)cc1Cl,930
9,CS(=O)(=O)NCCCNCc1cccc(-c2ccc(-c3nc4ccc(C(F)(F)F)cc4[nH]3)s2)c1,880
10,CC1(C)N=C(NC(=O)c2cc([N+](=O)[O-])cc([N+](=O)[O-])c2)N=C(N)N1OCc1cccc2ccccc12,10
11,CCNC(=O)Nc1ccc(N(C)c2ccnc(Nc3ccc(CS(C)(=O)=O)cc3)n2)cc1,90
12,Oc1ccccc1CN1CCN(C(c2ccccc2)c2ccccc2)CC1,760
13,COc1ccc2nccc([C@@H](O)CN3CCC(NCCOc4cc(C(F)(F)F)ccc4F)CC3)c2c1,110
14,CCOc1ccc2c(NN=Cc3cccc([N+](=O)[O-])c3)cc(C)nc2c1,220
15,Cc1cc(NC2CCN(Cc3ccccc3)CC2)nc(NCCCCc2ccccc2)n1,380
16,COc1ccc(CN2CCC(CNC(C)c3cccc4ccccc34)CC2)cc1 (centres undefined),180
17,COc1ccc(N2C(N)=NC(N)=NC2(C)C)cc1OC,310
18,Nc1cc(-c2ccc(Br)cc2O)nc2ccccc12,620
19,CCN(CC)CCNc1ccnc2[nH]c3ccc([N+](=O)[O-])cc3c12,200
20,O=S(=O)(NCCN1CCCC1)c1ccc(-c2ccccc2CNC2Cc3ccccc3C2)cc1,850
21,O=C(CSc1n[nH]c(=O)n1Cc1ccccc1)Nc1ccccc1-c1ccccc1,950
22,O=C1C=Cc2ccccc2/C1=C/c1sc(=NCc2ccccc2)n(Cc2ccccc2)c1O,160
23,CN(C)Cc1ccc2cc(NC(=O)c3ccc(-c4ccc(Cl)cc4)cc3)ccc2c1,1340
24,Cc1cc(CN2CC[C@H](NC(=O)c3ccc(Cl)c(Cl)c3)C2)ccc1OC1CCN(Cc2ccccc2)CC1,910
25,c1ccc(COc2ccc(Nc3ncnc4cnc(-c5ccc(CN6CCCCC6)o5)cc34)cc2)cc1,970

row,SMILES,IC50 [nM]
1,CCc1nc(N)nc(N)c1-c1ccc2c(c1)CCCC2,200
2,Fc1ccc2c(NN=CC=Cc3ccccc3)ccnc2c1,780
3,O=C(Nc1ccc(-c2ccccc2)cc1)Nc1cccc(Cn2nc(Cl)c(N3CCCNCC3)cc2=O)c1,680
4,Cc1cc(N2CCCC2)nc(Nc2ccc(NC(=O)CC(C)C)cc2)n1,840
5,Cc1ccc(Nc2nc(NN=Cc3ccccc3[N+](=O)[O-])nc(Nc3ccc([N+](=O)[O-])cc3)n2)cc1C,690
6,Oc1cc(Nc2ccnc3ccc(I)cc23)c(F)cc1Cl,1230
7,O=C(Cc1ccccc1)NC(CCN1CCC(NC(=O)c2ccc(Cl)cc2)CC1)c1ccc(Cl)c(Cl)c1 (centres undefined),920
8,Cc1nc(-c2ccc(-c3ccc(C(=O)Nc4ccc(Cl)c(N5CCN(C)CC5)c4)cc3)c(C)c2)no1,740
9,CCCCN(CCCC)CCOc1cc2c(cc1OC)CCN2C(=O)/C=C/c1ccccc1Cl,1180
10,O=C(Nc1cccc(-c2cc(-c3c(Cl)cccc3Cl)no2)c1)c1cnc2ccccc2c1,1100
11,COc1ccc2nccc(N3CCC(NCc4ccc5c(n4)NC(=O)CS5)CC3)c2n1,860
12,CCCc1cc(Cc2cnc(N)nc2N)cc(CCC)c1OCCCCCC(=O)OCC,50
13,O=C(Nc1cccc(CN2CCN(C(=O)c3ccccc3)CC2)c1)c1ccco1,890
14,O=C(COc1cnc2ccccc2n1)Nc1ccccc1Sc1ccc(Cl)cc1,730
15,CC(C)(C)c1nn(-c2ccccc2)c2[nH]c(=O)c(CNC3CCCCC3)cc12,1250
16,COc1ccc(CCN(C)CCCOc2ccc(NC(=O)COc3cccc4sc5ccccc5c(=O)c34)cc2)cc1OC,460
17,N#Cc1ccc(-c2ccc(C(=O)NCC3CCN(CCN4CCC(c5ccc6c(c5OCC(N)=O)CCCC6)CC4)CC3)cc2)cc1,440
18,O=C(NC1CC1)c1ccc(N2CCC(c3ccccc3)CC2)nc1,1110
19,CC1CN(Cc2csc(Nc3ccccc3)n2)CC(C)O1 (centres undefined),1020
20,Clc1ccc(-c2cc3c(NCc4ccncc4)nccc3s2)cc1,850
21,CCCCCCC(CC)c1cc(O)c2c(c1)OC(C)(C)c1ccncc1-2 (centres undefined),810
22,COc1cc(NC(=O)c2sc(-c3ccc(Cl)cc3)cc2NC(=O)CN2CC[C@@H](O)C2)ccc1OCCN1CCCC1,800
23,CCCCCCCCn1ccc(=N)cc1,840
24,CC(C)N(Cc1ccccc1)C(=O)CN1C(=O)COc2ccc(S(=O)(=O)N3CCCCCC3)cc21,250
25,CCC(CSC1CCCCC1)N(C)CCN(C)C(CC)CSC1CCCCC1 (centres undefined),310

row,SMILES,IC50 [nM]
1,CCOc1c(OC)ccc2c1CCN(CCN1CCC(NC(=O)c3ccc(-c4cccc(C(F)(F)F)c4C(F)(F)F)cc3)CC1)C2,730
2,CCNc1cc(C(=O)N[C@@H](Cc2ccccc2)[C@H](O)CNCCc2ccccc2)cc(N2CCCCS2(=O)=O)c1,940
3,COc1ccc2nccc([C@@H](O)CN3CCC(NC(=O)c4ccc(OC)c(N)c4)CC3)c2c1,710
4,O=C(N1CCN(c2ccc(C(F)(F)F)cc2[N+](=O)[O-])CC1)C(Cl)(Cl)Cl,710
5,S=C(NCCCCCN1CCC(c2c[nH]c3ccccc23)CC1)Nc1ccc(Cl)c(Cl)c1,710
6,Oc1ccc2c(c1NCC1CCCCC1)CCCC2,510
7,O=C(NC1CCN(Cc2ccccc2)CC1)c1csc2nc(-c3ccc(Cl)cc3)cn12,910
8,CC(C)C[C@@H](CNC[C@H](CC(C)C)NC(=O)OC(C)(C)C)NC(=O)OC(C)(C)C,1250
9,Cc1[nH]c(C)c(-c2ccc(Oc3ccc(Cl)c(Cl)c3)cc2)c(=O)c1Br,300
10,Cc1ccc2c(NN=Cc3ccc(N(C)C)cc3)cc(C)nc2c1,880
11,CC[C@H](C)CNC(=O)c1cccc(-c2ccc(CN3CCC(N4CCCC4)CC3)cc2)n1,790
12,COc1cc(N)cc2sc(N)nc12,250
13,CCc1cn2c3c(cc(C(=O)N[C@@H](Cc4ccccc4)[C@H](O)CNCC(C)C)cc13)N(C)S(=O)(=O)CC2,40
14,O=c1[nH]c2ccc3[nH]cccc3c2c1C=Nc1ccc(N2CCN(CCO)CC2)cc1,1270
15,CC(C)(C)OC(=O)N[C@@H](CS(=O)(=O)CCN=C(N)COCc1ccccc1)C(=O)OC(C)(C)C,820
16,CCCc1cc(Cc2cnc(N)nc2N)cc(CCC)c1OCCCCC(=O)O,200
17,O=C(Nc1ccc(Cl)cc1)Nc1ccc2nonc2c1,1100
18,CCCCCCN1CCCN(Cc2ccc(C(=O)Nc3ccc(CC)cc3)cc2)CC1,760
19,COc1c(C2CCN(CCCCNC(=O)c3cc(-c4ccc(Cl)cc4)sc3C)CC2)ccc2c1CCCC2,630
20,NC(=O)c1cccc(C(=O)Nc2cccc(-c3cccc(-c4nc5ccccc5[nH]4)c3)c2)c1,550
21,CC(C)(CNC(=O)[C@H]1CCCCN1)c1nc(-c2ccc(Cl)c(O)c2)c(-c2ccncc2)[nH]1,730
22,Cc1cc(Cl)c(S(=O)(=O)NC(C)(C)C)cc1OCC(=O)NC1CCCCC1,550
23,COc1cc(CCON2C(N)=NC(N)=NC2(C)C)cc(OC)c1OC,50
24,CCCN(C(=O)c1ccccc1C)c1nnc(-c2cccc(C)c2)s1,900
